Laboratory results: EP0252380B1, “Antibiotic LL-E19020 alpha and beta” (AMERICAN CYANAMID COMPANY, priority 1986, dated 1988)
Marks after values point to notes of the source that are not given here.

Experiment: Weight gains and feed efficiency in broiler chicks treated with E19020 alpha (Table IX A)
Format: in vivo
Conditions: for FEED/GAIN 0-3 WEEKS: control 1.43; for FEED/GAIN 0-7 WEEKS: control 1.99; for WEIGHT GAIN IN GRAMS 0-3 WEEKS: control 608; for WEIGHT GAIN IN GRAMS 0-7 WEEKS: control 2145
Description: Five male and five female one day old Peterson X Arbor Acres chicks are allotted to starter battery cages by weight. Cages are randomized to treatment groups with seven replicates per treatment. […] The positive standard is penicillin at 200 ppm. Diets are prepared weekly.

In the case of `C/C=C\C=C\[C@@H]1O[C@](O)([C@H](CO[C@H]2C[C@@H](OC)[C@@H](O[C@@H]3C[C@@H](OC)[C@@H](O[C@H]4C[C@H](OC)[C@H](O)[C@H](C)O4)[C@H](C)O3)[C@@H](C)O2)C(=O)NC/C=C/C=C(\C)[C@@H](OC)[C@H](C)[C@H]2C[C@H](O)[C@H](/C=C/C=C/C=C/C(=O)O)O2)[C@H](OC(=O)Cc2ccccc2)[C@H](O)C1(C)C` [LL-E19020 alpha], the “FEED/GAIN % IMPROVEMENT OVER CONTROLS 0-3 WEEKS” value (6.25 PPM) is reported as 3.5%, the “FEED/GAIN % IMPROVEMENT OVER CONTROLS 0-7 WEEKS” value (6.25 PPM) is reported as 5.0% and the “WEIGHT GAIN % IMPROVEMENT OVER CONTROLS 0-3 WEEKS” value (6.25 PPM) is reported as 4.4%. The “WEIGHT GAIN % IMPROVEMENT OVER CONTROLS 0-7 WEEKS” value (6.25 PPM) was 1.8%, the “FEED/GAIN 0-3 WEEKS” value (6.25 PPM) was 1.38** and the “FEED/GAIN 0-7 WEEKS” value (6.25 PPM) was 1.89**. The “WEIGHT GAIN IN GRAMS 0-3 WEEKS” value (6.25 PPM) was 635* GRAMS, the “WEIGHT GAIN IN GRAMS 0-7 WEEKS” value (6.25 PPM) was 2183 GRAMS and the “FEED/GAIN % IMPROVEMENT OVER CONTROLS 0-3 WEEKS” value (12.5 PPM) was 3.5%. For the same molecule, the “FEED/GAIN % IMPROVEMENT OVER CONTROLS 0-7 WEEKS” value (12.5 PPM) was 4.0%, the “WEIGHT GAIN % IMPROVEMENT OVER CONTROLS 0-3 WEEKS” value (12.5 PPM) was 6.3% and the “WEIGHT GAIN % IMPROVEMENT OVER CONTROLS 0-7 WEEKS” value (12.5 PPM) was 2.5%. For the same molecule, the “FEED/GAIN 0-3 WEEKS” value (12.5 PPM) was 1.38**, the “FEED/GAIN 0-7 WEEKS” value (12.5 PPM) was 1.91** and the “WEIGHT GAIN IN GRAMS 0-3 WEEKS” value (12.5 PPM) was 647* GRAMS. The “WEIGHT GAIN IN GRAMS 0-7 WEEKS” value (12.5 PPM) was 2198 GRAMS, the “FEED/GAIN % IMPROVEMENT OVER CONTROLS 0-3 WEEKS” value (25 PPM) was 3.5% and the “FEED/GAIN % IMPROVEMENT OVER CONTROLS 0-7 WEEKS” value (25 PPM) was 5.0%. For the same molecule, the “WEIGHT GAIN % IMPROVEMENT OVER CONTROLS 0-3 WEEKS” value (25 PPM) was 8.4%, the “WEIGHT GAIN % IMPROVEMENT OVER CONTROLS 0-7 WEEKS” value (25 PPM) was 5.7% and the “FEED/GAIN 0-3 WEEKS” value (25 PPM) was 1.38**. For the same molecule, the “FEED/GAIN 0-7 WEEKS” value (25 PPM) was 1.89**, the “WEIGHT GAIN IN GRAMS 0-3 WEEKS” value (25 PPM) was 659** GRAMS and the “WEIGHT GAIN IN GRAMS 0-7 WEEKS” value (25 PPM) was 2267* GRAMS. For the same molecule, the “FEED/GAIN % IMPROVEMENT OVER CONTROLS 0-3 WEEKS” value (50 PPM) was 2.8%, the “FEED/GAIN % IMPROVEMENT OVER CONTROLS 0-7 WEEKS” value (50 PPM) was 4.0% and the “WEIGHT GAIN % IMPROVEMENT OVER CONTROLS 0-3 WEEKS” value (50 PPM) was 5.6%. The “WEIGHT GAIN % IMPROVEMENT OVER CONTROLS 0-7 WEEKS” value (50 PPM) was 2.8%, the “FEED/GAIN 0-3 WEEKS” value (50 PPM) was 1.39* and the “FEED/GAIN 0-7 WEEKS” value (50 PPM) was 1.91**. The “WEIGHT GAIN IN GRAMS 0-3 WEEKS” value (50 PPM) was 642* GRAMS, the “WEIGHT GAIN IN GRAMS 0-7 WEEKS” value (50 PPM) was 2206 GRAMS and the “FEED/GAIN % IMPROVEMENT OVER CONTROLS 0-3 WEEKS” value (100 PPM) was 5.6%. For the same molecule, the “FEED/GAIN % IMPROVEMENT OVER CONTROLS 0-7 WEEKS” value (100 PPM) was 4.0%, the “WEIGHT GAIN % IMPROVEMENT OVER CONTROLS 0-3 WEEKS” value (100 PPM) was 7.3% and the “WEIGHT GAIN % IMPROVEMENT OVER CONTROLS 0-7 WEEKS” value (100 PPM) was 2.8%. For the same molecule, the “FEED/GAIN 0-3 WEEKS” value (100 PPM) was 1.35**, the “FEED/GAIN 0-7 WEEKS” value (100 PPM) was 1.91** and the “WEIGHT GAIN IN GRAMS 0-3 WEEKS” value (100 PPM) was 652** GRAMS. The “WEIGHT GAIN IN GRAMS 0-7 WEEKS” value (100 PPM) was 2204 GRAMS.
